Assay results: patent US7816400B2 (The University of Hong Kong, priority 2007, dated 2010)
pIC50: −log10 of the molar value. Like-named read-outs stand apart in the source and are kept apart here.

Tests used:
Kv1.5 = biological target: T1, Kv1.5 (Homo sapiens, UniProt P22460); experiment: Kv1.5 channel block in stably expressing HEK 293 cells; assay type: cell-based
T1 construct: expressed in transfected cells
Procedure: The established HEK 293 cell lines stably expressing the hERG channel gene, Kv1.5 (Tang et al., 2007), or recombinant human cardiac KCNQ1/KCNE1 channel current (IKs) (Dong et al., 2006) was maintained separately in Dulbecco's modified eagle medium (Invitrogen) supplemented with 10% fetal bovine serum and containing 400 μg/ml G418 (for hERG or Kv1.5 channels) or 100 μg/ml hygromycin (for IKs).
The whole-cell patch-clamp technique was used for electrophysiological recording. Borosilicate glass electrodes (1.2-mm OD) were pulled with a Brown-Flamming puller (model P-97, Sutter Instrument Co, Novato, Calif., USA) and had tip resistances of 2-3 MΩ when filled with pipette solution. Membrane currents were recorded in voltage-clamp mode using an EPC-9 amplifier and Pulse software (HEKA, Lambrecht, Germany). A 3-M KCl-agar salt bridge was used as reference electrode. The tip potentials were compensated before the pipette touched the cell. After a giga-ohm seal was obtained, the cell membrane was ruptured by gentle suction to establish the whole-cell configuration. The cell membrane capacitance (pF) was directly measured using the lock-in module of the Pulse software, and used for normalizing the current in individual cells. The series resistance (Rs) was 3-5 MΩ and was compensated by 50-70% to minimize voltage errors. Perforated patch configuration was used for recording action potential in human atrial cells and IKs in HEK 293 cells as described previously (Li et al., 2002b; Dong et al., 2006). Current signals were low-pass filtered at 5 kHz and stored on the hard disk of an IBM compatible computer.
Other derivatives/analogs studied have no effect or a week inhibitory effect on Kv1.5.

anesthetized dogs [1] = experiment: In vivo electrophysiology (atrial ERP, QTc) in anesthetized dogs; parameters: species or system dog; details: 5 mg/kg intraduodenal
Procedure: Adult mongrel dogs (12-15 kg) were anesthetized with pentobarbital (30 mg/kg i.v.), supplemented during the experiment when needed. The animal was intubated and ventilated with room air. Body temperature was maintained at 37-38° C. with a temperature control system. The left femoral vein was cannulated for maintenance of anesthesia and introducing the mono-phasic action potential (MAP) recording- and pacing-catheters (Boston Scientific Ltd) to the right atrium. The vagus nerves were isolated and divided in the neck. […] A left thoracotomy was performed in the fourth intercostal space, and the pericardium was incised to provide access to the left atrium for introducing the MAP catheter. The catheters were used for recording MAPs of right and left atria, respectively, and for measurement of effective refractory period (ERP). […] A ligation was made at the pylorus with a thick cotton thread to prevent the possible back flow of the duodenum content.
Following a 30-min equilibration period and measurement of atrial excitation threshold with 2-ms duration of stimuli, atrial ERP was determined using a train of 8 basic stimuli (S1, twice-diastolic threshold) followed by an identical premature stimulus (S2). The basic cycle lengths (BCL) of 200, 250 and 300 ms were applied in both right and left atria. S2 was initially delivered late in diastole in 5-ms decrements until a response was not elicited by the S2 indicated on the MAP recording. The ERP was defined as the longest S1-S2 interval failing a propagated response, and the procedure was repeated for three times for each measurement. MAP, ECG and blood pressure signals were continuously monitored and stored on an IBM compatible PC computer using a multiple channels data acquisition system (RM-6280C, Chengdu Instrument Ltd, Chendu, China).
The ERP measurement was then repeated every hour post drug administration for 6 hours. Excitation threshold of both right and left atria was verified before ERP each measurement. • 1.7.2.
The ERPs were determined in anesthetized dogs using the BCLs of 300, 250, and 200 ms by introducing S1-S2 via a programmed cardiac stimulator (FIG. 10A).

anesthetized dogs [2] = experiment: Experimental vagotonic AF in anesthetized dogs; assay type: in vivo, dog
Procedure: Sustained vagotonic AF was generated in anesthetized dogs by introducing two MAP catheters respectively into the right atrium and the left ventricle along with stimulation of the divided bilateral vagal nerves in the neck. […] Ventricular pacing was performed with 2 ms voltage pulses (2.5 Hz, 150% diastolic threshold) when vagal nerves were continuously stimulated. AF was generated by the BCL 100-ms S1 followed by S2, lasting for 10 min. […] The sustained AF could be repeatedly generated and terminated by stopping vagal stimulation. AF incidence and AF duration were recorded before and at different time points (0.5, 1, 1.5, 2, 3, and 4h) after intraduodenal administration of drugs.
AF was induced by S1-S2 stimulation at 100 ms BCL with bilateral vagal stimulation (see Methods & FIG. 12) at certain time points during the 0.5 to 4 h period following intraduodenal administration. AF lasted for 10 min and terminated once vagal stimulation was stopped. No AF occurrence or shortened AF duration during the continuous vagal stimulation were considered to represent prevention of AF.

hERG channels = hERG channels (Homo sapiens, UniProt Q12809); experiment: cell-based
hERG channels, sequence (Q12809 whole entry, the tested form may be a part): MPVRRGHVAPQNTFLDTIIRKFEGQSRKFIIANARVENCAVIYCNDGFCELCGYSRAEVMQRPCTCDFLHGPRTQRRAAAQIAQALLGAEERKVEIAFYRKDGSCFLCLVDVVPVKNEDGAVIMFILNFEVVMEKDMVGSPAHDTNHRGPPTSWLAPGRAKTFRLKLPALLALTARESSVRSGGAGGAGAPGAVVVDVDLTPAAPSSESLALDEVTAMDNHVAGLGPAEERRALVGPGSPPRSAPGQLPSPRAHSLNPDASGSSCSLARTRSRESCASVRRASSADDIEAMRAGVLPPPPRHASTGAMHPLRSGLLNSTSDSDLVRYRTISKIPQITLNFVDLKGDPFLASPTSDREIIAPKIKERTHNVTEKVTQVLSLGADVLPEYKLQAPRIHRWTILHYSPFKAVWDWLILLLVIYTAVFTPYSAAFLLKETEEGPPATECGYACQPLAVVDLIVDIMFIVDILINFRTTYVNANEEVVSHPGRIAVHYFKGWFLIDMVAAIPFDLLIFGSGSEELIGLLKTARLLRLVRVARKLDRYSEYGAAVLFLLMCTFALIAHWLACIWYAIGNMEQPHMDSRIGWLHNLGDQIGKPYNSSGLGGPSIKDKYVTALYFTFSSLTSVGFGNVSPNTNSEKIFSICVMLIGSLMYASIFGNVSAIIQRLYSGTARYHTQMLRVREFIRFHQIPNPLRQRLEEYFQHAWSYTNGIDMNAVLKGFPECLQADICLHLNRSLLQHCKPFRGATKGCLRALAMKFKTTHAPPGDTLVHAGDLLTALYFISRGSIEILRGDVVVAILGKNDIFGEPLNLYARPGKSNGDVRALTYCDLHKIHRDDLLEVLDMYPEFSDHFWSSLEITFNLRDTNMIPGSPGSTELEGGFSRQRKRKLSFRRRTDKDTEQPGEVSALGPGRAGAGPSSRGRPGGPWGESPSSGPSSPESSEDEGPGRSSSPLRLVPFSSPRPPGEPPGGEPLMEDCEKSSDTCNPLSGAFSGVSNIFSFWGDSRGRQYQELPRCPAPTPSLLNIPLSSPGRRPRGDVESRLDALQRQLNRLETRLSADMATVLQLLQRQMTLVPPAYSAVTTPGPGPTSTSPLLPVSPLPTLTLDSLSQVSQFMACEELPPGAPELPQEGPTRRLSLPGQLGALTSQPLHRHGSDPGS

isolated rabbit hearts = experiment: ECG (heart rate, QTc) in isolated hypokalemic rabbit hearts, Langendorff; details: 10 μM, hypokalemic (3 mM K+) perfusion
Procedure: ECG was recorded with a Powerlab recording system via two electrodes placed respectively on base and apex of the heart.
The hearts were perfused using a hypokalemic (3 mM K^+) solution.

human atrial myocytes = experiment: Action potential in human atrial myocytes, perforated patch, current clamp; assay type: cell-based
Text: Atrial cells were isolated from specimens of human right atrial appendage obtained from patients (56.1±4.7 years old) undergoing coronary artery bypass grafting. […] All patients were free from supraventricular tachyarrythmias, and the atria were grossly normal at the time of surgery. After excision, the samples were quickly immersed in oxygenated, normally Ca^2+-free cardioplegic solution for transport to the laboratory. Atrial myocytes were enzymatically dissociated as described previously (Tian et al., 2006; Gao et al., 2004). Briefly, the atrial tissue was minced, and gently agitated by continuous bubbling with 100% O2 in a Ca^2+-free Tyrode solution for 15 min (5 min at a time in fresh solutions), and then incubated for 50 min in a similar solution containing 150-200 U/ml collagenase (CLS II, Worthington Biochemical, Freehold, N.J., USA), 0.2 mg/ml protease (type XXIV, Sigma-Aldrich Chemical, St Louis, Mo., USA.) and 1 mg/ml bovine serum albumin (Sigma-Aldrich). After then, the chunks were re-incubated in a fresh enzyme solution of the same composition but no protease. The quantity and quality of isolated cells were monitored under a microscope. When the cell yield appeared optimal, the chunks were suspended in a high K medium containing (mM) 10 KCl, 120 K-glutamate, 10 KH2PO4, 1.8 MgSO4, 10 taurine, 10 HEPES, 0.5 EGTA, 20 glucose, 10 mannitol, pH was adjusted to 7.3 with KOH and gently blown with a pipette. The isolated myocytes were kept at room temperature in the medium at least 1 h before use.
A small aliquot of the solution containing the isolated cells was placed in an open perfusion chamber (1-ml) mounted on the stage of an inverted microscope. Myocytes were allowed to adhere to the bottom of the chamber for 5-10 min and were the superfused at 2-3 ml/min with Tyrode solution. Only quiescent rod-shaped cells with clear cross-striations were used. The studies were conducted at room temperature (21-22° C.) for current recording or 36° C. for action potential recording.
The whole-cell patch-clamp technique was used for electrophysiological recording. Borosilicate glass electrodes (1.2-mm OD) were pulled with a Brown-Flamming puller (model P-97, Sutter Instrument Co, Novato, Calif., USA) and had tip resistances of 2-3 MΩ when filled with pipette solution. […] A 3-M KCl-agar salt bridge was used as reference electrode. The tip potentials were compensated before the pipette touched the cell. After a giga-ohm seal was obtained, the cell membrane was ruptured by gentle suction to establish the whole-cell configuration. […] The series resistance (Rs) was 3-5 MΩ and was compensated by 50-70% to minimize voltage errors. Perforated patch configuration was used for recording action potential in human atrial cells and IKs in HEK 293 cells as described previously (Li et al., 2002b; Dong et al., 2006). Current signals were low-pass filtered at 5 kHz and stored on the hard disk of an IBM compatible computer.

[3] = HEK293, HEK 293 cells stably expressing Kv1.5, Table 3, read-out: Kv1.5 (IC50)
[4] = BCL 200 ms, pre-treatment (baseline)
[5] = BCL 250 ms, pre-treatment (baseline)
[6] = HEK 293 cells stably expressing Kv1.5, Table 3, read-out: Kv1.5 (IC50)

T1 sequence (P22460 whole entry): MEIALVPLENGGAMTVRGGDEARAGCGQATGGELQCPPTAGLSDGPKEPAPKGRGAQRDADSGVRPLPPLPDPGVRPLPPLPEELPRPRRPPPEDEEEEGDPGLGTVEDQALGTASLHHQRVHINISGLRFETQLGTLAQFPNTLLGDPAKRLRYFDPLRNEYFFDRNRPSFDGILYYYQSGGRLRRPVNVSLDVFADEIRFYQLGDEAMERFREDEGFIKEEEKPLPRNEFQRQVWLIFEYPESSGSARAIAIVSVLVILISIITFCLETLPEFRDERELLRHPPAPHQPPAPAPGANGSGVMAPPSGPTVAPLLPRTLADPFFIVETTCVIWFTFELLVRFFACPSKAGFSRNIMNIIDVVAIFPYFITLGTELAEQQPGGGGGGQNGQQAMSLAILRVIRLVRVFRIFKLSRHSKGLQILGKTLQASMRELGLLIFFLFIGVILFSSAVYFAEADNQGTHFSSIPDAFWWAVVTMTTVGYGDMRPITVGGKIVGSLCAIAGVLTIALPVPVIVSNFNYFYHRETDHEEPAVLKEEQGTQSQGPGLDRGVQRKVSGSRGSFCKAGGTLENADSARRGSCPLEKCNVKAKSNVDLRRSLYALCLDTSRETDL

| Structure (SMILES) | effect on Kv1.5 compared with acacetin, in words (Kv1.5; comparative study, Table 3) | pIC50 (Kv1.5; [6]) | pIC50 (hERG channels) | further results |
| --- | --- | --- | --- | --- |
| COc1ccc(-c2cc(=O)c3c(O)cc(OC(C)=O)cc3o2)cc1 [A-2-11] | less effect |  |  | inhibition at 100 µM (Kv1.5; [3]): < 50% |
| CC(C)NCC(O)c1ccc(NS(C)(=O)=O)cc1 (stereo not shown) [Sotalol, sotalol] |  |  |  | left atrial ERP (ms), BCL 200 ms (anesthetized dogs [1]; BCL 200 ms, 2 h post-treatment): 105.1 ± 5.1 ms; left atrial ERP (ms), BCL 200 ms (anesthetized dogs [1]; [4]): 88.8 ± 3.7 ms; right atrial ERP (ms), BCL 200 ms (anesthetized dogs [1]; [4]): 88.7 ± 3.9 ms; left atrial ERP (ms), BCL 250 (anesthetized dogs [1]; [5]): 94.3 ± 3.1 ms; right atrial ERP (ms), BCL 250 (anesthetized dogs [1]; [5]): 96.3 ± 8.3 ms; summarized anti-AF efficacy (anesthetized dogs [2]; 5 mg/kg intraduodenal, vehicle 0%): 60%; animals in which sustained AF was not observed (anesthetized dogs [2]; 5 mg/kg intraduodenal, vehicle: sustained AF in 100%): 40%; incidence of AF, in words (anesthetized dogs [2]; acacetin 2.5, 5, 10 mg/kg, sotalol 5 mg/kg, 1.5-2.5 h after intraduodenal administration): reduced the incidence of AF |
| Oc1cc(O)c2c(c1)O[C@H](c1ccc(O)c(O)c1)[C@@H](O)C2 [A-9] | no effects | < 4.00 | < 4.00 |  |
| O=c1cc(-c2ccccc2)oc2cc(O)c(O)c(O)c12 [A-12] | no effects | < 4.00 | < 4.00 |  |
| COc1ccc(-c2cc(=O)c3c(O)cc(OC(=O)c4ccccc4)cc3o2)cc1 [A-2-12] | less effect |  |  | inhibition at 100 µM (Kv1.5; [3]): < 50% |
| COc1ccc(-c2cc(=O)c3cc(C)ccc3o2)cc1 [A-6] | less effect | 4.86 |  |  |
| CC1OC(OCC2OC(Oc3c(-c4ccc(O)c(O)c4)oc4cc(O)cc(O)c4c3=O)C(O)C(O)C2O)C(O)C(O)C1O (stereo not shown) [A-11] | no effects |  | < 4.00 | pIC50 (Kv1.5): < 4.00 |
| COc1ccc(-c2cc(=O)c3c(O)cc(OC)cc3o2)cc1 [A-2-13] | less effect |  |  | inhibition at 100 µM (Kv1.5; HEK293, read-out: Kv1.5 (IC50, μM)): < 50% |
| COc1ccc(C(=O)Oc2cc(O)cc3oc(-c4ccc(OC)cc4)cc(=O)c23)cc1 [A-2] |  | 5.69 | 5.39 | ion channel selectivity for Kv1.5 and hERG channels compared with acacetin, in words (Kv1.5; comparative study, Table 3): less ion channel selectivity |
| C=C[C@H]1C[N@@]2CC[C@H]1C[C@@H]2[C@@H](O)c1ccnc2ccc(OC)cc12 [Quinidine, quinidine] |  |  |  | QTc interval of ECG, in words (isolated rabbit hearts): prolonged QTc interval; heart rate, in words (isolated rabbit hearts): slowed heart rate; QTc interval of ECG, in words (isolated rabbit hearts; listed as quinidine): significantly increased |
| CCOc1cc(O)c2c(=O)cc(-c3ccc(OC)cc3)oc2c1 [A-2-14] | less effect |  |  | inhibition at 100 µM (Kv1.5; [3]): < 50% |
| Nc1ccncc1 [4-AP, reference compound] |  |  |  | rate dependence of APD50, APD75, APD90 prolongation, in words (human atrial myocytes; 50 μM 4-AP (data not shown)): reverse rate-dependent prolongation; action potential duration, in words (human atrial myocytes; 50 μM 4-AP, 2 Hz): prolonged APD50 more than APD90 |
| COc1ccc(-c2cc(=O)c3cc(Cl)ccc3o2)cc1 [A-5] | less effect | 4.63 | 4.89 |  |
| COc1ccc(-c2cc(=O)c3ccccc3o2)cc1 [A-4] | less effect | 5.05 |  |  |
